From ChEMBL document CHEMBL3526061, “Glucuronidation of edaravone by human liver and kidney microsomes: biphasic kinetics and identification of UGT1A9 as the major UDP-glucuronosyltransferase isoform” (Drug Metab Dispos, 2012) come the findings set out here.

A short description of series [1]: Drug metabolism in human liver microsomes assessed as drug glucuronidation in presence of BSA by LC-MS/MS method. The format is ADME. Background: Liver microsomes are vesicles of endoplasmic reticulum, rich in cytochrome P450 enzymes.
In series [2] the target is T1, UDP-glucuronosyltransferase 1A6 (Homo sapiens, UniProt P19224).
T1 sequence (P19224 whole entry): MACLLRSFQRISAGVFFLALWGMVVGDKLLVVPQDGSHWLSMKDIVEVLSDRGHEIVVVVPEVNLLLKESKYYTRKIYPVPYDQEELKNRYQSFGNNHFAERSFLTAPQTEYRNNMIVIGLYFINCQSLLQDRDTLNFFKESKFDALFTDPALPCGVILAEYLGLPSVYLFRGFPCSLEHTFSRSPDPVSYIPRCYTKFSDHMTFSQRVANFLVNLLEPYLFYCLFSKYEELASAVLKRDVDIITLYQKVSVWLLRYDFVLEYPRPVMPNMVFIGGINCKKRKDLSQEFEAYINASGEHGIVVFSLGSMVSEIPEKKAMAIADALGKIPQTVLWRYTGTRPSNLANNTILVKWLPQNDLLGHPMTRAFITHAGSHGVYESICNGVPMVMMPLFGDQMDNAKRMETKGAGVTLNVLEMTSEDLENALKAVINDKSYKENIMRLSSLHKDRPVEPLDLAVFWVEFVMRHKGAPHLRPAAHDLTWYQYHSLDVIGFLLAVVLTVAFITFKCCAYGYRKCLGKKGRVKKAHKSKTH
The experiment in a line: Activity of human recombinant UGT1A6 expressed in insect cells assessed as enzyme mediated glucuronidation at 500 uM by LC-MS/MS method. The format is ADME.

Series [3] deals with T2, UDP-glucuronosyltransferase 2B15 (Homo sapiens, UniProt P54855).
T2 sequence (P54855 whole entry): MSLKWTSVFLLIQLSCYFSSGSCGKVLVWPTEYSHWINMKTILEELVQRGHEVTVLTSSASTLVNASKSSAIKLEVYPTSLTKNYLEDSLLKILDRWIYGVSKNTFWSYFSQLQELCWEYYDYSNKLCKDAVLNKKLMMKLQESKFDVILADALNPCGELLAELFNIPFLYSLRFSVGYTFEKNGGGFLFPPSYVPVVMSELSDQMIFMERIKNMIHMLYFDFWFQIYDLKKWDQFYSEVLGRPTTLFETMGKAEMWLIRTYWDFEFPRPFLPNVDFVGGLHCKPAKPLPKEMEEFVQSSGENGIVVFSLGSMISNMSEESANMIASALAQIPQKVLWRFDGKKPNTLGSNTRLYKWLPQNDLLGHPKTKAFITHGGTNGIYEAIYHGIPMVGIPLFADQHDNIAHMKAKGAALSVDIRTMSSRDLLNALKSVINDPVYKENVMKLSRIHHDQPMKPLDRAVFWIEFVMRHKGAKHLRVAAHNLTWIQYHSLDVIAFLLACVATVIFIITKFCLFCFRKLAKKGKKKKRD
The experiment in a line: Activity of human recombinant UGT2B15 expressed in insect cells assessed as enzyme mediated glucuronidation at 500 uM by LC-MS/MS method. The format is ADME.

Series [4] concerns Liver microsome. The experiment in a line: Drug metabolism in human liver microsomes assessed as drug glucuronidation in presence of 100 to 1000 uM propofol by LC-MS/MS method. The format is ADME.
Series [5] concerns the target T1, UDP-glucuronosyltransferase 1A6. Briefly: Activity of human recombinant UGT1A6 expressed in insect cells assessed as intrinsic clearance for enzyme mediated glucuronidation per mg protein by LC-MS/MS method. The format is ADME.
The nature of series [6]: Drug metabolism in human kidney microsomes assessed as drug glucuronidation in presence of 100 to 1000 uM propofol by LC-MS/MS method. The format is ADME.
Series [7] concerns the target T3, UDP-glucuronosyltransferase 2B7 (Homo sapiens, UniProt P16662).
T3 sequence (P16662 whole entry): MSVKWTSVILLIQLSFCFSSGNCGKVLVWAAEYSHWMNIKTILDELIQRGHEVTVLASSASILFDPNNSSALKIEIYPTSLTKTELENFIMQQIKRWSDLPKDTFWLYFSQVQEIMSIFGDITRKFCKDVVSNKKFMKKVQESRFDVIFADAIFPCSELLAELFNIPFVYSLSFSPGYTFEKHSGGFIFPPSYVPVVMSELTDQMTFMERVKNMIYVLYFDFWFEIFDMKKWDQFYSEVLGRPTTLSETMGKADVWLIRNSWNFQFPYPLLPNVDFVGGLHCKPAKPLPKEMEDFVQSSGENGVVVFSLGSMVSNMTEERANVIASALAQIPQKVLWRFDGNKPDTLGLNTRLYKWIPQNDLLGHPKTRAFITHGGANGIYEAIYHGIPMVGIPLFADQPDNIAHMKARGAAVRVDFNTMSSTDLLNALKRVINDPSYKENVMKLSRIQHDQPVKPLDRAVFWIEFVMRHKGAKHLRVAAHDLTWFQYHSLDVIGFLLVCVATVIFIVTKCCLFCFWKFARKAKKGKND
The experiment in a line: Activity of human recombinant UGT2B7 expressed in insect cells assessed as intrinsic clearance for enzyme mediated glucuronidation per mg protein by LC-MS/MS method. The format is ADME.

Series [8] concerns Liver microsome. The experiment in a line: Drug metabolism in human liver microsomes assessed as drug glucuronidation per mg tissue in absence of BSA by LC-MS/MS method. The format is ADME.
Series [9] addresses T3, UDP-glucuronosyltransferase 2B7. Briefly: Activity of human recombinant UGT2B7 expressed in insect cells assessed as enzyme mediated glucuronidation at 500 uM by LC-MS/MS method. The format is ADME.
Series [10] is described as follows: Cmax in human at 0.5 mg/kg. The format is ADME, organism-based. Set-up: dose 0.5 mg/kg. As to conditions: in vivo.
The target in series [11] is T4, UDP-glucuronosyltransferase 1A9 (Homo sapiens, UniProt O60656).
T4 sequence (O60656 whole entry): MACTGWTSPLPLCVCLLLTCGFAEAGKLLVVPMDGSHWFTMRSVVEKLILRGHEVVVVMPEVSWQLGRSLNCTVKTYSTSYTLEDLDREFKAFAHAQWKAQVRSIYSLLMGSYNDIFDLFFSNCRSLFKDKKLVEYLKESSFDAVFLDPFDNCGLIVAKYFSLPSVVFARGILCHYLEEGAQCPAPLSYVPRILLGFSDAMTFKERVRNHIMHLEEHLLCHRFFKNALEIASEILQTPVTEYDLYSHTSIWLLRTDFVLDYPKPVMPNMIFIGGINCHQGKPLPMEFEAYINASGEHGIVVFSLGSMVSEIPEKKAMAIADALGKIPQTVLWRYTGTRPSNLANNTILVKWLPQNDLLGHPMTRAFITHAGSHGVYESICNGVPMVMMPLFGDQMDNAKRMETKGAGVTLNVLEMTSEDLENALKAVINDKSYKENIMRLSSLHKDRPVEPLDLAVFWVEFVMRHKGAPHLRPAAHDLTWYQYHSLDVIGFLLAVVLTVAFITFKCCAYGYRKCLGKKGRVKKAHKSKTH
Briefly: Activity of human recombinant UGT1A9 expressed in insect cells assessed as enzyme mediated glucuronidation by LC-MS/MS method. The format is ADME.

In general, Cmax refers to the peak of the concentration-time curve.

On to `CC1=NN(c2ccccc2)C(=O)C1` [EDARAVONE], for which the Km in series [1] (read-out: KmH) was 8.4 µM; in [1] (read-out: KmL), 1350 µM. The Drug metabolism entry is on record as “metabolite_detected” in series [2]; “metabolite_detected” in series [3]; “metabolite_not_detected” in the series with Liver microsome [4]; “metabolite_not_detected” in [6]; “metabolite_detected” in series [9]. The clearance in series [5] worked out at 1.6 µL/min/mg. In series [7], the CL was found to be 0.7 µL/min/g. The VmaxH in the series on Liver microsome [8] stood at 309.4 pmol/min/g. In addition, in the series on Liver microsome [8], the VmaxL is recorded as 7429 pmol/min/g. Further, the highest concentration (Cmax) in [10] came to 6 µM. Also, the KmH in [11] is 6 µM. The KmL in series [11] worked out at 419.4 µM.
